In EP4610270A1, “NOVEL ANTIMICROBIAL PEPTIDE AND PHARMACEUTICAL COMPOSITION THEREOF” (Qingdao Sensheng Biopharmaceutical Technology Co., Ltd, priority 2022, dated 2024):

What was measured:
[1] = tested on: Human red blood cells (RBC); format: cell-based
Description: Human red blood cells (RBC) were used to detect the hemolytic activity of Ac-SH-17. All subjects provided written informed consent. The obtained healthy human blood was placed in an EDTA anticoagulant tube. Red blood cells were collected by centrifugation and suspended in PBS to a concentration of 4% (v/v). An equal portion of 200 µl red blood cell suspension was mixed with 200 µl of Ac-SH-17 solution at different concentrations (12.5, 25, 50, 100, and 200 µg/ml). After incubation at 37°C, the mixture was centrifuged […], and the supernatant was collected and added to a 96-well plate. Red blood cells incubated with PBS, BSA solution (100 µg/ml), or 0.1% Triton X-100 solution were used as blank control, negative control, and positive control, respectively. The absorbance was measured at 540 nm using a microplate reader. Three parallel samples were set up for each experiment, and the experiment was repeated at least three times. The results were analyzed for significant differences by a two-way ANOVA method, with p<0.05 indicating significant differences. Table 3.1 Hemolysis analysis

[2] = tested on: RAW264.7 mouse macrophage cell line; experiment: Anti-inflammatory experiment: NO release after LPS stimulation (Griess); format: cell-based; conditions: antimicrobial peptide 80 µM; 1 µg/ml LPS stimulation; FIG. 4
From the text: NO is a diffusible and membrane permeable small molecule obtained during the oxidation of L-arginine by NOS. NO was associated with many physiological reactions in organisms. […] But at low concentrations, NO could act as a signal to positively and negatively regulate innate and acquired immunity. Thus, by detecting the concentration of NO released by cells, the inflammatory response of cells could be detected.
The RAW264.7 mouse macrophage cell line was used as the experimental material and cultured in a DMEM high glucose medium containing FBS (10%) and penicillin-streptomycin dual antibody (100 U/ml). The RAW264.7 mouse macrophage cell line was used for experiments when the cell state was stable, the shape was full, and the edges were transparent.
• 1. The culture medium was removed from the cells and gently purged twice with PBS at room temperature to remove excess culture medium. After digestion with 0.25% trypsin for 3 min, the culture bottle was gently tapped to induce cell detachment, and then the culture medium was added to terminate digestion. The culture bottle was repeatedly blown and beaten to make the cells uniform. • 2. […]
4.2 In this experiment, NO was detected by the method provided in the total nitric oxide content determination kit, and improvements were made. […]

[3] = Antisepsis experiment: survival in fecal homogenate sepsis model; format: in vivo, SD rats; conditions: intraperitoneal 0.5 ml of 80 µM; within 24 h; compared to the model group; FIG. 5
Description: Sepsis refers to a systemic inflammatory response syndrome caused by infectious factors. A rat model of intestinal sepsis was established by injecting rat fecal homogenate into the abdominal cavity of model rats, followed by intraperitoneal injection of antimicrobial peptides to observe the survival rate of mice within 10-48 h, in order to evaluate the therapeutic effect of antimicrobial peptides on sepsis in mice.
60 SD rats were randomly divided into 6 groups by a random number table method, i.e., model group 1, model group 2, model group 3, model group 4, model group 5, and blank group, with 10 rats in each group. These 6 groups of rats were weighed and numbered in sequence.
After 1 week of adaptive feeding, fresh formed feces were collected from these 60 SD rats. After weighing the rat feces, an appropriate amount of physiological saline was added to it, and then the mixture was placed in a homogenizer for thorough grinding to prepare a rat feces homogenate at the concentration of 10%. The rat fecal homogenate was centrifuged at 3000 rpm for 5 min to obtain the supernatant, and then a syringe was used to suck out an appropriate amount of the supernatant for later use.
Before modeling, rats in model groups 1-5 were fasted for 12 hours, and then a 10% concentration of rat feces homogenate supernatant was injected intraperitoneally at a dose of 1 ml/200 g. […]

[4] = tested on: Staphylococcus aureus 25923 (ATCC 25923, S. aureus 25923); experiment: Antimicrobial activity by liquid antimicrobial / turbidimetric method (OD540, microplate reader); format: cell-based; conditions: S. aureus drug sensitive strain; FIG. 2
Description: (§1) The materials of Gram negative bacteria and Gram positive bacteria used in the embodiments of the present disclosure include Gram negative bacteria Escherichia coli strain Escherichia coli 25922 (ATCC 25922, E. coli 25922) and Gram positive bacteria Staphylococcus aureus strain Staphylococcus aureus 25923 (ATCC 25923, S. aureus 25923). […] 100 µl of the sample was immediately taken and placed in a microplate reader to measure its OD540, which was recorded as OD 0h. Then the sample was placed in a 37°C constant temperature incubator for cultivation, 100 µl of the sample was taken every 1 h, and the OD540 of each centrifuge tube was measured. Based on the changes in absorbance, the growth of bacteria could be determined, and the antimicrobial activity and minimum inhibitory concentration (MIC) of the polypeptide could be determined. […] 100 µl of the sample was immediately taken and placed in a microplate reader to measure its OD540, which was record as OD 0h. Then the sample was placed in a 37°C constant temperature incubator for cultivation, 100 µl of the sample was taken every 1 h, and the OD540 of each centrifuge tube was measured once.

[5] = tested on: Escherichia coli 25922 (ATCC 25922, E. coli 25922); experiment: as above; format: cell-based; conditions: E. coli drug sensitive strain; FIG. 1
Description: as §1

Ac-SRMKKWAKIIEKWRKWH-NH2 [Ac-SH-17, Ac-SRMKKWAKIIEKWRKWH-NH2]
OD Value [1]: 0.061±0.013 | hemolytic effect [1]: does not have significant hemolytic effect | Hemolysis Ratio (%) ([1]; red cells of human): 4.40% | inhibition of the release of NO [2]: significantly inhibited the release of NO | release concentration of NO [2]: substantially the same as that of the blank control | survival rate [3]: significantly improved the survival rate | antimicrobial activity [4]: exhibited antimicrobial activity | antimicrobial activity [5]: exhibited antimicrobial activity
